From BindingDB's records for doi:10.1007/bf00572436 (1985)

Biological target: T1, Adenosine receptor A1 (Bos taurus, UniProt P28190)
T1 sequence (P28190 whole entry): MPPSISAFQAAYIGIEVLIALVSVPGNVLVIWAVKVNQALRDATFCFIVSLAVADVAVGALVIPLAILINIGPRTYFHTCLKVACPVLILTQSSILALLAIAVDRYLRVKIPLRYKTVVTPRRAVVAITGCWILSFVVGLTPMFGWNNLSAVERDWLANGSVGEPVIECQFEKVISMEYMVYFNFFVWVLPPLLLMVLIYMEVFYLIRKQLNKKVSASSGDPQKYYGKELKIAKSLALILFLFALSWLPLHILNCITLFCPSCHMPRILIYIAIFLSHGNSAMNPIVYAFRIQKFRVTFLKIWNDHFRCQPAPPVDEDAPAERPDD

Row | SMILES | Ki [µM]
1 | Cn1c(=O)[nH]c2ncn(C)c2c1=O [1,7-dimethylxanthine] | > 10
2 | CC(=O)CCCCn1c(=O)c2c(ncn2C)n(C)c1=O [1-(5-Oxohexyl)theobromine (pentoxifylline)] | > 10
3 | CC(=O)Oc1ccc(-c2nc3c([nH]2)c(=O)n(C)c(=O)n3C)cc1 [8-(4-Acetoxyphenyl)theophylline] | 0.023
4 | Cn1c(=O)c2nc(-c3ccc(O)cc3)[nH]c2n(C)c1=O [8-(4-Hydroxy-phenyl)-1,3-dimethyl-3,7-dihydro-purine-2,6-dione] | 0.0034
5 | CCCn1c(=O)c2nc(-c3ccc(O)cc3)[nH]c2n(CCC)c1=O [8-(4-Hydroxy-phenyl)-1,3-dipropyl-3,9-dihydro-purine-2,6-dione] | 0.0032
6 | O=c1[nH]c(=O)c2[nH]cnc2[nH]1 [NSC_1188] | > 10
7 | CCCn1c(=O)c2[nH]c(-c3ccc(Cl)cc3N)nc2n(CCC)c1=O [NSC_92411] | 0.0003

Continued, values first:

Row | Ki [µM] | SMILES
8 | > 10 | Cn1c(=O)c2c(ncn2C)n(C)c1=O
9 | 2.5 | CC(C)Cn1c(=O)n(C)c(=O)c2[nH]cnc21 [1-methyl-3-(2-methylpropyl)-2,3,6,7-tetrahydro-1H-purine-2,6-dione]
10 | > 10 | CCCn1c(=O)[nH]c(=O)c2[nH]cnc21 [3-Propylxanthine (enprofylline)]
11 | > 10 | CC(O)Cn1cnc2c1c(=O)n(C)c(=O)n2C (stereo unspecified) [7-(2-Hydroxy-propyl)-1,3-dimethyl-3,7-dihydro-purine-2,6-dione(Proxyphylline)]
12 | > 10 | Cn1c(=O)c2c(ncn2CCO)n(C)c1=O [BETA-HYDROXYETHYL THEOPHYLLINE]
13 | > 10 | Cn1c(=O)c2c(ncn2C[C@H](O)CO)n(C)c1=O [Diprophylline]
14 | > 10 | CCN(CC)CCn1cnc2c1c(=O)n(C)c(=O)n2C [NSC_28329]
15 | > 10 | CC(O)Cn1c(=O)c2c(ncn2C)n(C)c1=O (stereo unspecified) [NSC_66120]
16 | > 10 | Cn1cnc2c1c(=O)[nH]c(=O)n2C [theobromine]
